target: PAR4 (Homo sapiens (Human), UniProt Q96RI0); test: FLIPR assay in PAR4-expressing HEK293 cells (PAR4 antagonist activity, calcium mobilization); assay type: cell-based; conditions: H-Ala-Phe(4-F)-Pro-Gly-Trp-Leu-Val-Lys-Asn-Gly-NH2-induced calcium mobilization
Text: The FLIPR assay is an exemplary in vitro assay for measuring the activity of the PAR4 antagonists of the present invention. In this assay, intracellular calcium mobilization is induced in PAR4 expressing cells by a PAR4 agonist and calcium mobilization is monitored. See, e.g., Example A.
HEK293 cells stably expressing PAR4 were generated by a standard method of transfection of human […] cDNA expression vector or by RAGE technology from Athersys Inc. (Cleveland, Ohio) and selected based on PAR4 protein expression of mRNA expression. […] These cells express endogenous PAR1 and can elicit calcium signal upon stimulation with PAR1 agonist peptide.
Counter screens for agonist activity and PAR1 antagonist activity were also performed. Briefly, HEK293 EBNA PAR4 clone 20664.1J cells were plated 24 hrs. prior to experiment in 384 well, Poly-D-Lysine coated, black, clear bottom plates (Greiner Bio-One, Monroe, N.C.). Cells were plated at 20,000 cells/well in […] growth medium and incubated at 37° C. with 5% CO2 overnight. At time of assay, media was replaced with 40 μl 1× Hank's Buffered Saline Solution (HBSS) (with 10 mM HEPES) and 20 μl test compound also diluted in 1×HBSS buffer was added at various concentrations and 0.67% DMSO final concentration on the FDSS for agonist measurement. The cells were then incubated for 30 minutes at room temperature followed by addition of 20 μl of agonist peptide for antagonist measurement on the FDSS.
As indicated above, the FLIPR assay, an in vitro assay, measures the PAR4 antagonist activity of compounds tested as described in Example A. The PRP assay, an in vitro assay, measures the PAR4 antagonist assay of the compounds tested in the presence of plasma proteins and thrombin agonist as described in Example C.

Chain of PAR4 (Q96RI0 18-385): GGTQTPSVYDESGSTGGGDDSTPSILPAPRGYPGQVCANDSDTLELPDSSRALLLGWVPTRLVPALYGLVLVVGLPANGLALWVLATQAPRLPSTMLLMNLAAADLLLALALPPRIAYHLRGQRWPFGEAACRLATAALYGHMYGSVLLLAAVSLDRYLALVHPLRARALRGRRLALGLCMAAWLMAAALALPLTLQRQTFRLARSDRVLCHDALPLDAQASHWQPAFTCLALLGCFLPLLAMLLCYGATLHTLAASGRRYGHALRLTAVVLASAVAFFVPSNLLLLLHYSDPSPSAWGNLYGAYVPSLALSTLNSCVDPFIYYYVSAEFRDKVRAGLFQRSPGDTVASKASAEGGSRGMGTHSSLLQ

In order of falling EC50:
1. COc1cc(OCc2csc(-c3ccccc3Cl)n2)c2cc(-c3cn4nc(OC)sc4n3)oc2c1 [Example 16]  3.4 nM
2. COc1cc(OCc2nc(N3CCOCC3)sc2C=O)c2cc(-c3cn4nc(OC)sc4n3)oc2c1 [Example 88, 4-(((6-Methoxy-2-(2-methoxyimidazo[2,1-b][1,3,4]thiadiazol-6-yl)benzofuran-4-yl)oxy)methyl)-2-morpholinothiazole-5-carbaldehyde]  2.9 nM
3. COc1cncc(-c2nc(COc3cc(OC)cc4oc(-c5cn6nc(OC)sc6n5)cc34)cs2)c1 [Example 79]  2.6 nM
4. COc1cc(OCc2nc(-c3ccc(C(=O)N(C)C)cc3)sc2C(C)C)c2cc(-c3cn4nc(OC)sc4n3)oc2c1 [Example 42, 4-(5-Isopropyl-4-(((6-methoxy-2-(2-methoxyimidazo[2,1-b][1,3,4]thiadiazol-6-yl)benzofuran-4-yl)oxy)methyl)thiazol-2-yl)-N,N-dimethylbenzamide]  2.5 nM
5. COc1cc(OCc2nc(-c3ccc(C(=O)O)cc3)sc2C)c2cc(-c3cn4nc(OC)sc4n3)oc2c1 [Example 46, 4-(4-(((6-Methoxy-2-(2-methoxyimidazo[2,1-b][1,3,4]thiadiazol-6-yl)benzofuran-4-yl)oxy)methyl)-5-methylthiazol-2-yl)benzoic acid]  2.4 nM
6. COc1cc(OCc2csc(-c3ccc(C#N)cc3)n2)c2cc(-c3cn4nc(OC)sc4n3)oc2c1 [Example 64]  2.3 nM
7. COc1cc(OCc2nc(-c3ccccc3)sc2C)c2cc(-c3cn4nc(OC)sc4n3)oc2c1 [Example 13]  2.1 nM
8. COc1cc(OCc2csc(-c3ccccc3F)n2)c2cc(-c3cn4nc(OC)sc4n3)oc2c1 [Example 26]  1.8 nM
9. COc1cc(OCc2csc(-c3ccc(Cl)cc3)n2)c2cc(-c3cn4nc(OC)sc4n3)oc2c1 [Example 27]  1.6 nM
10. COc1cc(OCc2csc(-c3ccc(OC(F)(F)F)cc3)n2)c2cc(-c3cn4nc(OC)sc4n3)oc2c1 [Example 29]  1.4 nM
11. COc1cc(OCc2csc(-c3cccc(C)c3)n2)c2cc(-c3cn4nc(OC)sc4n3)oc2c1 [Example 12]  1.3 nM
12. COc1cc(OCc2csc(-c3cnccn3)n2)c2cc(-c3cn4nc(OC)sc4n3)oc2c1 [Example 32]  1.3 nM
13. COc1cc(OCc2csc(Br)n2)c2cc(-c3cn4nc(OC)sc4n3)oc2c1 [Example 35]  1.3 nM
14. COc1cc(OCc2nc(-c3ccc(C(=O)OC(C)(C)C)cc3)sc2C)c2cc(-c3cn4nc(OC)sc4n3)oc2c1 [Example 45, tert-Butyl 4-(4-(((6-methoxy-2-(2-methoxyimidazo[2,1-b][1,3,4]thiadiazol-6-yl)benzofuran-4-yl)oxy)methyl)-5-methylthiazol-2-yl)benzoate]  1.3 nM
15. COc1cc(OCc2csc(-c3cccc(C(F)(F)F)c3)n2)c2cc(-c3cn4nc(OC)sc4n3)oc2c1 [Example 17]  1.1 nM
16. COc1cc(OCc2csc(C3CCCCC3)n2)c2cc(-c3cn4nc(OC)sc4n3)oc2c1 [Example 20]  1.1 nM
17. COc1cc(OCc2csc(-c3ccc(F)cc3F)n2)c2cc(-c3cn4nc(OC)sc4n3)oc2c1 [Example 24]  1.1 nM
18. COc1cc(OC(C)c2csc(-c3ccccc3)n2)c2cc(-c3cn4nc(OC)sc4n3)oc2c1 (stereo not shown) [Example 83, 2-Methoxy-6-(6-methoxy-4-(1-(2-phenylthiazol-4-yl)ethoxy)benzofuran-2-yl)imidazo[2,1-b][1,3,4]thiadiazole]  1.1 nM
19. COc1cc(OCc2nc(-c3ccccc3)sc2Cl)c2cc(-c3cn4nc(OC)sc4n3)oc2c1 [Example 85, 6-(4-((5-Chloro-2-phenylthiazol-4-yl)methoxy)-6-methoxybenzofuran-2-yl)-2-methoxyimidazo[2,1-b][1,3,4]thiadiazole]  1.1 nM
20. COc1cc(OCc2csc(-c3ccccc3OC)n2)c2cc(-c3cn4nc(OC)sc4n3)oc2c1 [Example 19]  1 nM
21. COc1cc(OCc2csc(-c3ccc(F)cc3)n2)c2cc(-c3cn4nc(OC)sc4n3)oc2c1 [Example 15]  0.98 nM
22. COc1cc(OCc2nc(N3CCOCC3)sc2Cl)c2cc(-c3cn4nc(OC)sc4n3)oc2c1 [Example 84]  0.97 nM
23. COc1cc(OCc2csc(-c3ccc(C(=O)NC(C)(C)C)cc3)n2)c2cc(-c3cn4nc(OC)sc4n3)oc2c1 [Example 41, N-(tert-Butyl)-4-(4-(((6-methoxy-2-(2-methoxyimidazo[2,1-b][1,3,4]thiadiazol-6-yl)benzofuran-4-yl)oxy)methyl)thiazol-2-yl)benzamide]  0.9 nM
24. COc1cc(OCc2nc(-c3ccc(C(N)=O)cc3)sc2C)c2cc(-c3cn4nc(OC)sc4n3)oc2c1 [Example 70]  0.89 nM
25. CNC(=O)c1ccc(-c2nc(COc3cc(OC)cc4oc(-c5cn6nc(OC)sc6n5)cc34)c(C)s2)cc1 [Example 49, 4-(4-(((6-Methoxy-2-(2-methoxyimidazo[2,1-b][1,3,4]thiadiazol-6-yl)benzofuran-4-yl)oxy)methyl)-5-methylthiazol-2-yl)-N-methylbenzamide]  0.82 nM
26. COc1cc(OCc2csc(N3CC[S+]([O-])CC3)n2)c2cc(-c3cn4nc(OC)sc4n3)oc2c1 [Example 55]  0.79 nM
27. COc1cc(OCc2nc(-c3ccc(C(=O)NCC(F)(F)F)cc3)sc2C)c2cc(-c3cn4nc(OC)sc4n3)oc2c1 [Example 47, 4-(4-(((6-Methoxy-2-(2-methoxyimidazo[2,1-b][1,3,4]thiadiazol-6-yl)benzofuran-4-yl)oxy)methyl)-5-methylthiazol-2-yl)-N-(2,2,2-trifluoroethyl)benzamide]  0.77 nM
28. COc1cc(OCc2nc(-c3ccc(C(=O)N(C)C)cc3)sc2C)c2cc(-c3cn4nc(OC)sc4n3)oc2c1 [Example 66]  0.75 nM
29. COc1cc(OCc2csc(-c3ccc4c(c3)OCO4)n2)c2cc(-c3cn4nc(OC)sc4n3)oc2c1 [Example 57]  0.67 nM
30. COc1cc(OCc2csc(-c3cccnc3)n2)c2cc(-c3cn4nc(OC)sc4n3)oc2c1 [Example 82]  0.67 nM
31. COc1cc(OCc2csc(-c3cccnc3)n2)c2cc(-c3cn4nc(OC)sc4n3)oc2c1 [Example 30]  0.65 nM
32. COc1cc(OCc2csc(-c3cccc(C#N)c3)n2)c2cc(-c3cn4nc(OC)sc4n3)oc2c1 [Example 61]  0.64 nM
33. COc1cc(OCc2csc(-c3cccc(O)c3)n2)c2cc(-c3cn4nc(OC)sc4n3)oc2c1 [Example 63]  0.63 nM
34. COc1cc(OCc2csc(N3CCC(F)(F)CC3)n2)c2cc(-c3cn4nc(OC)sc4n3)oc2c1 [Example 31]  0.59 nM
35. COc1cc(OCc2csc(-c3cccc(F)c3)n2)c2cc(-c3cn4nc(OC)sc4n3)oc2c1 [Example 25]  0.55 nM
36. COc1cc(OCc2csc(N3CCSCC3)n2)c2cc(-c3cn4nc(OC)sc4n3)oc2c1 [Example 53]  0.52 nM
37. COc1cc(OCc2csc(-c3ccc(COC(C)=O)cc3)n2)c2cc(-c3cn4nc(OC)sc4n3)oc2c1 [Example 68]  0.49 nM
38. COc1cc(OCc2csc(-c3cccc(OC(C)=O)c3)n2)c2cc(-c3cn4nc(OC)sc4n3)oc2c1 [Example 62]  0.48 nM
39. COc1cc(OCc2nc(-c3ccnc(F)c3)sc2C)c2cc(-c3cn4nc(OC)sc4n3)oc2c1 [Example 71]  0.46 nM
40. COC(=O)c1ccc(-c2nc(COc3cc(OC)cc4oc(-c5cn6nc(OC)sc6n5)cc34)cs2)cc1 [Example 37, Methyl 4-(4-(((6-methoxy-2-(2-methoxyimidazo[2,1-b][1,3,4]thiadiazol-6-yl)benzofuran-4-yl)oxy)methyl)thiazol-2-yl)benzoate]  0.45 nM
41. COc1cc(OCc2nc(-c3cccc(COC(C)=O)c3)sc2C)c2cc(-c3cn4nc(OC)sc4n3)oc2c1 [Example 76]  0.42 nM
42. COc1cc(OCc2csc(-c3cccnc3F)n2)c2cc(-c3cn4nc(OC)sc4n3)oc2c1 [Example 78]  0.4 nM
43. COc1cc(OCc2csc(CCC3CC3)n2)c2cc(-c3cn4nc(OC)sc4n3)oc2c1 [Example 60]  0.38 nM
44. COc1cc(OCc2csc(N3CCS(=O)(=O)CC3)n2)c2cc(-c3cn4nc(OC)sc4n3)oc2c1 [Example 54]  0.36 nM
45. COc1cc(OCc2nc(-c3ccnc(F)c3)sc2C(C)C)c2cc(-c3cn4nc(OC)sc4n3)oc2c1 [Example 43, 6-(4-((2-(2-Fluoropyridin-4-yl)-5-isopropylthiazol-4-yl)methoxy)-6-methoxybenzofuran-2-yl)-2-methoxyimidazo[2,1-b][1,3,4]thiadiazole]  0.34 nM
46. COc1cc(OCc2csc(CCC(F)(F)F)n2)c2cc(-c3cn4nc(OC)sc4n3)oc2c1 [Example 58]  0.33 nM
47. COc1cc(OCc2csc(N3C[C@@H](C)O[C@@H](C)C3)n2)c2cc(-c3cn4nc(OC)sc4n3)oc2c1 [Example 51]  0.26 nM
48. COc1cc(OCc2csc(-c3ccc(CO)cc3)n2)c2cc(-c3cn4nc(OC)sc4n3)oc2c1 [Example 69]  0.23 nM
49. COc1cc(OCc2csc(CC(C)C)n2)c2cc(-c3cn4nc(OC)sc4n3)oc2c1 [Example 50]  0.21 nM

Source: US9688695B2, “Imidazothiadiazole and imidazopyrazine derivatives as protease activated receptor 4 (PAR4) inhibitors for treating platelet aggregation” (BRISTOL-MYERS SQUIBB COMPANY, priority 2012, dated 2017)
